From ChEMBL document CHEMBL1158197, “A new prenylated flavonol from the root of Petalostemon purpureus” (1996)
≈ marks a conversion by molar mass, not a printed value. Calls of active or inactive are those of the source. The calls are words filed in the database; no cut-off is given here.

Columns and labels:
KB = test: Cytotoxicity against human KB cells; type: functional; conditions: read-out: ED50 (the source's name)
[1] = Cytotoxicity against human U373 cells; type: functional, U-373MG ATCC; conditions: U373 MG, read-out: ED50 (the source's name)
LNCaP = test: Cytotoxicity against human LNCAP cells; type: functional; conditions: read-out: ED50 (the source's name)
HT = test: Cytotoxicity against human HT cells; type: functional; conditions: read-out: ED50 (the source's name)
[2] = Cytotoxicity against human BC1 cells; type: functional; conditions: read-out: ED50 (the source's name)
Lu1 = test: Cytotoxicity against human Lu1 cells; type: functional; conditions: read-out: ED50 (the source's name)
[3] = Cytotoxicity against human KBVIN cells in presence of vinblastine; type: functional; conditions: read-out: ED50 (the source's name)
Betapolyomavirus macacae [4] = test: Induction of DNA-strand scission activity in SV40 form 1 DNA at 25 ug/mL
[5] = Cytotoxicity against human KBVIN cells in absence of vinblastine; type: functional; conditions: read-out: ED50 (the source's name)
SK-MEL-2 = test: Cytotoxicity against human SK-MEL-2 cells; type: functional; conditions: read-out: ED50 (the source's name)
A-431 = test: Cytotoxicity against human A431 cells; type: functional; conditions: read-out: ED50 (the source's name)
Col2 = test: Cytotoxicity against human Col2 cells; type: functional; conditions: read-out: ED50 (the source's name)
ZR-75-1 = test: Cytotoxicity against human ZR-75-1 cells; type: functional; conditions: read-out: ED50 (the source's name)
Betapolyomavirus macacae [6] = test: Induction of DNA-strand scission activity in SV40 form 1 DNA at 0.1 ug/mL

Row | Compound | EC50 (KB) [µg/mL] | EC50 [1] [µg/mL] | EC50 (LNCaP) [µg/mL] | EC50 (HT) [µg/mL] | EC50 [2] [µg/mL] | EC50 (Lu1) [µg/mL] | EC50 [3] [µg/mL] | Activity (Betapolyomavirus macacae [4]) | EC50 [5] [µg/mL] | EC50 (SK-MEL-2) [µg/mL] | EC50 (A-431) [µg/mL] | EC50 (Col2) [µg/mL] | EC50 (ZR-75-1) [µg/mL] | Activity (Betapolyomavirus macacae [6])
1 | CC(C)=CCCC1(C)C=Cc2c(-c3oc4cc(O)cc(O)c4c(=O)c3O)ccc(O)c2O1 (configuration not stated) [PETALOPURPURENOL] | 18.9 (≈ 43.3 µM) | 13.3 (≈ 30.5 µM) | 14.8 (≈ 33.9 µM) | 7.3 (≈ 16.7 µM) | 9.9 (≈ 22.7 µM) | 14.8 (≈ 33.9 µM) | 1 | inactive | 6.7 (≈ 15.4 µM) | 17.1 (≈ 39.2 µM) | 11.9 (≈ 27.3 µM) | > 20 | 4.1 (≈ 9.39 µM) | 
2 | CC(C)=CCc1cc(O)c(O)c(CC=C(C)C)c1[C@H]1Oc2c(CC=C(C)C)c(O)cc(O)c2C(=O)[C@@H]1O [PETALOSTEMUMOL] | > 20 | > 20 | > 20 | 10.3 (≈ 20.3 µM) | > 20 | > 20 | 1.2 | Active | > 20 | > 20 | > 20 | > 20 | 17.1 (≈ 33.6 µM) | 
3 | BLEOMYCIN SULFATE |  |  |  |  |  |  |  |  |  |  |  |  |  | Active
